The supplement of paper PMC10307832

Tests used:
Test in all cases: relative viability (nuclei count vs DMSO), 5 days (fraction); higher = more cells survive
[1] = compound: O=S(=O)(c1ccccc1)N(CC(F)(F)F)c1ccc(C(O)(C(F)(F)F)C(F)(F)F)cc1 + CC1(C)CCC(c2ccc(Cl)cc2)=C(CN2CCN(c3ccc(C(=O)NS(=O)(=O)c4ccc(N[C@H](CCN5CCOCC5)CSc5ccccc5)c(S(=O)(=O)C(F)(F)F)c4)cc3)CC2)C1 [Navitoclax] (partner 0.5 µM)
Method in brief: (§1)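 For relative viability, nuclei counts in treated wells were divided by those in vehicle wells. Lung cancer cell lines had been pin-tool dosed in 1536-well plates the day after seeding and cultured for 5 days, then fixed and stained in one step (final 0.05% Triton X-100, 1% formaldehyde, 1 ug/ml Hoechst) and imaged at 4×. Doses were one drug alone or a fixed anchor-drug dose plus five library-drug doses (not always all listed) in √10 steps, and values are duplicate-plate medians.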

[2] = compound: O=S(=O)(c1ccccc1)N(CC(F)(F)F)c1ccc(C(O)(C(F)(F)F)C(F)(F)F)cc1 + CC(C)C[C@H](NC(=O)[C@H](Cc1ccccc1)NC(=O)c1cnccn1)B(O)O [Bortezomib] (partner 0.002 µM)
Method in brief: as §1

RO-3306 + Pemetrexed = compound: C1=CC2=C(C=CC(=C2)C=C3C(=O)NC(=NCC4=CC=CS4)S3)N=C1 [RO-3306] + Nc1nc2[nH]cc(CCc3ccc(C(=O)N[C@@H](CCC(=O)O)C(=O)O)cc3)c2c(=O)[nH]1 [Pemetrexed] (partner 0.2 µM)
Method in brief: as §1

[3] = compound: O=S(=O)(c1ccccc1)N(CC(F)(F)F)c1ccc(C(O)(C(F)(F)F)C(F)(F)F)cc1 + Nc1ncn([C@H]2C[C@H](O)[C@@H](CO)O2)c(=O)n1 [Decitabine] (partner 2 µM)
Method in brief: as §1

[4] = compound: O=S(=O)(c1ccccc1)N(CC(F)(F)F)c1ccc(C(O)(C(F)(F)F)C(F)(F)F)cc1 + CS(=O)(=O)N1CCN(Cc2cc3nc(-c4cccc5[nH]ncc45)nc(N4CCOCC4)c3s2)CC1 [Pictilisib] (partner 1 µM)
Method in brief: as §1

[5] = compound: O=S(=O)(c1ccccc1)N(CC(F)(F)F)c1ccc(C(O)(C(F)(F)F)C(F)(F)F)cc1 + C[C@@H](Oc1cc(-c2cnn(C3CCNCC3)c2)cnc1N)c1c(Cl)ccc(F)c1Cl [Crizotinib] (partner 1 µM)
Method in brief: as §1

Row | Cell Line | relative viability ([1]; first compound 0.8 µM) | relative viability ([1]; first compound 2.53 µM) | relative viability ([1]; first compound 8 µM) | relative viability ([2]; first compound 0.8 µM) | relative viability ([2]; first compound 2.53 µM) | relative viability ([2]; first compound 8 µM) | relative viability (RO-3306 + Pemetrexed; first compound 0.01 µM) | relative viability (RO-3306 + Pemetrexed; first compound 0.1 µM) | relative viability (RO-3306 + Pemetrexed; first compound 0.3162 µM) | relative viability (RO-3306 + Pemetrexed; first compound 1 µM) | relative viability ([3]; first compound 0.8 µM) | relative viability ([3]; first compound 8 µM) | relative viability ([4]; first compound 0.8 µM) | relative viability ([4]; first compound 2.53 µM) | relative viability ([4]; first compound 8 µM) | relative viability ([5]; first compound 0.8 µM) | relative viability ([5]; first compound 2.53 µM) | relative viability ([5]; first compound 8 µM) | relative viability (RO-3306 + Pemetrexed; first compound 0.03162 µM) | relative viability ([3]; first compound 2.53 µM)
1 | HARA | 1.21 | 1.14 | 0.948 | 1.12 | 1.04 | 1.04 | 0.242 | 0.227 | 0.24 | 0.288 | 0.426 | 0.657 | 0.43 | 0.317 | 0.293 | 0.98 | 0.945 | 0.682 |  | 
2 | NCI-H1944 | 1.03 | 1 | 1.04 |  |  |  | 0.794 | 0.663 | 0.611 | 0.671 | 0.461 | 0.483 | 0.3 | 0.341 | 0.357 | 1.2 | 1.11 | 1.04 | 0.63 | 0.456
3 | RERF-LC-KJ | 0.863 | 0.802 | 0.87 | 1.12 | 0.95 | 1.02 | 0.515 | 0.493 | 0.459 | 0.449 | 0.752 | 0.687 | 0.557 | 0.453 | 0.5 | 0.787 | 0.749 | 0.773 | 0.48 | 0.701
4 | NCI-H647 | 1.3 | 1.26 | 1.01 | 1.27 | 1.03 | 0.967 | 0.177 | 0.153 | 0.174 | 0.167 | 0.502 | 0.353 | 0.323 | 0.345 | 0.372 | 1.52 | 1.23 | 0.906 | 0.157 | 0.437
5 | NCI-H838 | 1.3 | 1.25 | 1.09 | 0.907 | 0.863 | 0.906 | 0.256 | 0.252 | 0.251 | 0.282 | 0.474 | 0.482 | 0.46 | 0.403 | 0.642 | 1.05 | 0.866 | 0.815 | 0.252 | 0.46
6 | NCI-H2170 | 0.715 | 0.681 | 0.547 |  |  |  | 0.314 | 0.241 | 0.251 | 0.271 | 0.496 | 0.475 | 0.305 | 0.291 | 0.307 | 1.25 | 1.19 | 1.21 | 0.311 | 0.439
7 | COR-L 105 | 0.691 | 0.668 | 0.823 | 0.846 | 0.75 | 0.702 | 1.25 | 1.04 | 0.913 | 0.95 | 0.63 | 0.649 | 0.44 | 0.397 | 0.418 | 0.876 | 0.839 | 0.661 | 0.993 | 0.679
8 | HOP-62 | 1.19 | 0.999 | 1.09 | 0.39 | 0.634 | 0.93 | 0.371 | 0.318 | 0.307 | 0.416 | 0.252 | 0.239 | 1.07 | 0.361 | 0.763 | 1.04 | 0.871 | 0.913 | 0.438 | 0.193
